# In patent US9284302B2, “Cyclobutyl benzimidazoles as PDE 10 inhibitors” (Merck Sharp & Dohme Corp., priority 2012, dated 2016):
# Molecular target: human PDE10A2 (Homo sapiens (Human), UniProt Q9Y233)
# Assay: PDE10 fluorescence polarization (IMAP FP) inhibition assay
# Type: biochemical
# Details: apparent inhibition constant; FAM-labeled cAMP substrate 50 nM, room temperature; read-out: PDE10a Ki
# Method: The activity of the compounds in accordance with the present invention as PDE10 inhibitors may be readily determined without undue experimentation using a fluorescence polarization (FP) methodology that is well known in the art (Huang, W., et al., J. Biomol Screen, 2002, 7: 215).
# In a typical experiment the PDE10 inhibitory activity of the compounds of the present invention was determined in accordance with the following experimental method. PDE10A2 was amplified from human fetal brain cDNA (Clontech, Mountain View, Calif.) using a forward primer corresponding to nucleotides 56-77 of human PDE10A2 (Accession No. AF127480, Genbank Identifier 4894716), containing a Kozak consensus sequence, and a reverse primer corresponding to nucleotides 2406-2413 of human PDE10A2 (Accession No. AF127480, Genbank Identifier 4894716). Amplification with Easy-A polymerase (Stratagene, La Jolla, Calif.) was 95° C. for 2 minutes followed by thirty three cycles of 95° C. for 40 seconds, 55° C. for 30 seconds, and 72° C. for 2 minutes 48 seconds. Final extension was 72° C. for 7 minutes. The PCR product was TA cloned into pcDNA3.2-TOPO (Invitrogen, Carlsbad, Calif.) according to standard protocol. AD293 cells with 70-80% confluency were transiently transfected with human PDE10A2/pcDNA3.2-TOPO using Lipofectamine 2000 according to manufacturer specifications (Invitrogen, Carlsbad, Calif.). Cells were harvested 48 hours post-transfection and lysed by sonication (setting 3, 10×5 sec pulses) in a buffer containing 20 mM HEPES, 1 mM EDTA and protease inhibitor cocktail (Roche). Lysate was collected by centrifugation at 75,000 xg for 20 minutes. Supernatant containing the cytoplasmic fraction was used for evaluation of PDE10A2 activity. The fluorescence polarization assay for cyclic nucleotide phosphodiesterases was performed using an IMAP® FP kit supplied by Molecular Devices, Sunnyvale, Calif. (product #R8139). IMAP® technology has been applied previously to phosphodiesterase assays (Huang, W., et al., J. Biomol Screen, 2002, 7: 215). Assays were performed at room temperature in 384-well microtiter plates with an incubation volume of 20.2 μL. Solutions of test compounds were prepared in DMSO and serially diluted with DMSO to yield 8 μL of each of 10 solutions differing by 3-fold in concentration, at 32 serial dilutions per plate. […] 0% of inhibition is determined by using DMSO (1% final concentrations). […]
# human PDE10A2, sequence (Q9Y233 267-1055): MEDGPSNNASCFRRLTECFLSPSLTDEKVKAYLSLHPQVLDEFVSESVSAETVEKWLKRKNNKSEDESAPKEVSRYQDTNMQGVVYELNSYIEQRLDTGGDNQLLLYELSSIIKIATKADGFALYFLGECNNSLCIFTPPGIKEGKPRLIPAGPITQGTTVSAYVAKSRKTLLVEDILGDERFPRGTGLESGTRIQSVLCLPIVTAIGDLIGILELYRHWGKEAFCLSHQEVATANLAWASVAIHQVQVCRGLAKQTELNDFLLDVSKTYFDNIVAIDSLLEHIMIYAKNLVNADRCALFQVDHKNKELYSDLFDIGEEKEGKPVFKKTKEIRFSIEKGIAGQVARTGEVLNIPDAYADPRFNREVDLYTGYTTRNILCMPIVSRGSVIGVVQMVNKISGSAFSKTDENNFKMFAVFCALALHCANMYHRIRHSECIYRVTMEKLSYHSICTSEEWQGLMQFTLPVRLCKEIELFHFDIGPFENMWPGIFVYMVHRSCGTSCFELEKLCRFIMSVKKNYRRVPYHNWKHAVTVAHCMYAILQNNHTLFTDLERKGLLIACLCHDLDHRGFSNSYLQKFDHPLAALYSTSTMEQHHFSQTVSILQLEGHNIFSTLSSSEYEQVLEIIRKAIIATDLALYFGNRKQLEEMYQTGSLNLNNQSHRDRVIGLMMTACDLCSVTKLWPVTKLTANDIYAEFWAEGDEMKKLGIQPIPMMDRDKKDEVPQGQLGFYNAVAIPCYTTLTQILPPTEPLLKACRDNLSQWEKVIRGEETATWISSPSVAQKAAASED
row,Ki [nM],SMILES
1,88,"Cc1nc(-n2nc(C)nc2C)cc(C2(F)CC(c3nc4ccccc4n3C)C2)n1 (stereo not shown) [Example 2, 2-(3-(6-(3,5-dimethyl-1H-1,2,4-triazol-1-yl)-2-methylpyrimidin-4-yl)-3-fluorocyclobutyl)-1-methyl-1H-benzo[d]imidazole]"
2,2.8,"Cc1nc(-n2nc(C)nc2C)cc([C@H]2C[C@@H](c3nc4ccccc4n3C)C2)n1 [Example 3, 2-((cis)-3-(6-(3,5-dimethyl-1H-1,2,4-triazol-1-yl)-2-methylpyrimidin-4-yl)cyclobutyl)-1-methyl-1H-benzo[d]imidazole]"
3,> 75,"Cc1nc(-n2nc(C)nc2C)cc(C2(O)CC(c3nc4ccccc4n3C)C2)n1 (stereo not shown) [Example 1, 1-(6-(3,5-dimethyl-1H-1,2,4-triazol-1-yl)-2-methylpyrimidin-4-yl)-3-(1-methyl-1H-benzo[d]imidazol-2-yl)cyclobutanol]"
4,4.7,"Cc1nc(-n2nc(C)nc2C)cc([C@H]2C[C@H](c3nc4ccccc4n3C)C2)n1 [Example 4, 2-((trans)-3-(6-(3,5-dimethyl-1H-1,2,4-triazol-1-yl)-2-methylpyrimidin-4-yl)cyclobutyl)-1-methyl-1H-benzo[d]imidazole]"
